# Test results reported in article PMC6345968, “Structural basis for species-selective targeting of Hsp90 in a pathogenic fungus” (Nature Communications, 2019).
# Where two headings read alike, the source gives them in different places.
# Legend:
# Hsp90 in 3T3 lysate = experiment: FP competition in whole-cell lysate; format: binding, mouse; details: 3T3 lysate
# Method: After vortexing, cell lysate was frozen at −80 °C for 2 h, followed by thawing on ice. The vortex-freeze-thaw step was repeated. […] Aliquots were thawed immediately prior to use.
# Hsp90 in HEPG2 lysate = details: HepG2 lysate
# human Grp94 NBD = human Grp94 NBD (Homo sapiens, UniProt P14625); details: 0.1 nM Cy3-GdA; for FP signal (raw) / FP signal as fraction of no-compound (0 uM) control: Experiments 1-3
# human Hsp90 NBD = human Hsp90 NBD (Homo sapiens, UniProt P08238); details: 0.1 nM Cy3-GdA, Human NBD-Hsp90 (10 nM); for FP signal (raw) / FP signal as fraction of no-compound (0 uM) control: Experiments 1-3
# [1] = molecular target: T1, Hsp90 in C. albicans (SC5314) lysate (Candida albicans, UniProt P46598); experiment: biochemical; format: binding; details: SC5314 lysate
# T1 construct: endogenous in cells; host or cells: C. albicans SC5314 whole-cell lysate
# C. albicans Hsp90 NBD = molecular target: T2, C. albicans Hsp90 NBD (Candida albicans, UniProt P46598); experiment: biochemical; format: binding; details: 0.1 nM Cy3-GdA, C. albicans NBD-Hsp90 (10 nM); for FP signal (raw) / FP signal as fraction of no-compound (0 uM) control: Experiments 1-3
# T2 construct: C. albicans Hsp90 (E7-K218); made in house; host or cells: E. coli Rosetta2
# [2] = Experiments 1-3, one value per experiment
# Chain of human Grp94 NBD (P14625 63-337): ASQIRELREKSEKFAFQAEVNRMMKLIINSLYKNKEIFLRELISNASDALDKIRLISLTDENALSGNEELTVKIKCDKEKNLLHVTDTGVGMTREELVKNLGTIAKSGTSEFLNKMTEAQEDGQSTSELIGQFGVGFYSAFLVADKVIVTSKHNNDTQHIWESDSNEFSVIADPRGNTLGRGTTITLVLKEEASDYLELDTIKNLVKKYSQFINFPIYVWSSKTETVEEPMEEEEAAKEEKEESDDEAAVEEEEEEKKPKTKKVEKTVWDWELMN
# Chain of human Hsp90 NBD (P08238 1-223): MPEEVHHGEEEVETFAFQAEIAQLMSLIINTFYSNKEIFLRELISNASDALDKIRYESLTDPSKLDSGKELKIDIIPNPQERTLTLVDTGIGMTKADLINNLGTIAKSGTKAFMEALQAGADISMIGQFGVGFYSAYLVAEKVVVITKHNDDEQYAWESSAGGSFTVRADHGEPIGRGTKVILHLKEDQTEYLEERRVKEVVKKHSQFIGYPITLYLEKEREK
# T1 sequence (P46598 whole entry): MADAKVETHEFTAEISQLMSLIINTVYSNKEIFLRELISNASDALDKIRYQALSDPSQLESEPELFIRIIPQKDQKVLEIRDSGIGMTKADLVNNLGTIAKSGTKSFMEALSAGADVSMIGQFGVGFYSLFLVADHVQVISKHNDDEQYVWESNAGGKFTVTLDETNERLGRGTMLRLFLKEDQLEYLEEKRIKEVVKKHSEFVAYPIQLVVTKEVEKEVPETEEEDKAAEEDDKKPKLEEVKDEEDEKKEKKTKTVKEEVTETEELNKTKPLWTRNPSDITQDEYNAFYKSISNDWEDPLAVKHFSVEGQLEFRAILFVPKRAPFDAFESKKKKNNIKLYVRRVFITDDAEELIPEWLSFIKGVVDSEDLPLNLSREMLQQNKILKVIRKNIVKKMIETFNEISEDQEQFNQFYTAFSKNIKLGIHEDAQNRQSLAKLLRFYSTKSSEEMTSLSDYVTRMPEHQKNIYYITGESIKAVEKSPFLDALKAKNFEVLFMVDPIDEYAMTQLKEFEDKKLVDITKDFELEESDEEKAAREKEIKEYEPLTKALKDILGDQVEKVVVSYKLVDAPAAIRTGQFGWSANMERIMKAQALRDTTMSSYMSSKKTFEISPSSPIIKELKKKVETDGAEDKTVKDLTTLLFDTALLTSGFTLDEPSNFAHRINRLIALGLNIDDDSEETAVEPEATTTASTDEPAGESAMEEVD
# T2 sequence (P46598 7-218): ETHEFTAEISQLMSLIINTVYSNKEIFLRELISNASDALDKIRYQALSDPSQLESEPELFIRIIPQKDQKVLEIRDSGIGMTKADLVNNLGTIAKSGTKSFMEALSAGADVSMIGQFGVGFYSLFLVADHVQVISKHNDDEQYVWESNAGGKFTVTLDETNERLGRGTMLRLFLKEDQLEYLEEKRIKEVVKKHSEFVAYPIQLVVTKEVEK
smiles,measurement,setting,value
COc1ccc(CON=C2C=CC=CC3OC3CC(C)OC(=O)c3c(O)cc(O)cc3C2)cc1 (mixture of isomers) [CMLD075],FP signal (raw),Hsp90 in 3T3 lysate; 0.01 uM,243
same,"FP signal, fraction of control",Hsp90 in 3T3 lysate; 0.01 uM,0.9681
same,FP signal (raw),Hsp90 in 3T3 lysate; 0.02 uM,243
same,"FP signal, fraction of control",Hsp90 in 3T3 lysate; 0.02 uM,0.9681
same,FP signal (raw),Hsp90 in 3T3 lysate; 0.078 uM,240
same,"FP signal, fraction of control",Hsp90 in 3T3 lysate; 0.078 uM,0.9562
same,FP signal (raw),Hsp90 in 3T3 lysate; 0.313 uM,223
same,"FP signal, fraction of control",Hsp90 in 3T3 lysate; 0.313 uM,0.8884
same,FP signal (raw),Hsp90 in 3T3 lysate; 0.625 uM,206
same,"FP signal, fraction of control",Hsp90 in 3T3 lysate; 0.625 uM,0.8207
same,FP signal (raw),Hsp90 in 3T3 lysate; 2.5 uM,144
same,"FP signal, fraction of control",Hsp90 in 3T3 lysate; 2.5 uM,0.5737
same,FP signal (raw),Hsp90 in 3T3 lysate; 5 uM,102
same,"FP signal, fraction of control",Hsp90 in 3T3 lysate; 5 uM,0.4064
same,FP signal (raw),Hsp90 in 3T3 lysate; 10 uM,52
same,"FP signal, fraction of control",Hsp90 in 3T3 lysate; 10 uM,0.2072
same,EC50,Hsp90 in 3T3 lysate; fit against log conc uM,3.42 µM
same,FP signal (raw),Hsp90 in HEPG2 lysate; 0.01 uM,200
same,"FP signal, fraction of control",Hsp90 in HEPG2 lysate; 0.01 uM,0.9132
same,FP signal (raw),Hsp90 in HEPG2 lysate; 0.02 uM,199
same,"FP signal, fraction of control",Hsp90 in HEPG2 lysate; 0.02 uM,0.9087
same,FP signal (raw),Hsp90 in HEPG2 lysate; 0.078 uM,186
same,"FP signal, fraction of control",Hsp90 in HEPG2 lysate; 0.078 uM,0.8493
same,FP signal (raw),Hsp90 in HEPG2 lysate; 0.313 uM,164
same,"FP signal, fraction of control",Hsp90 in HEPG2 lysate; 0.313 uM,0.7489
same,FP signal (raw),Hsp90 in HEPG2 lysate; 0.625 uM,146
same,"FP signal, fraction of control",Hsp90 in HEPG2 lysate; 0.625 uM,0.6667
same,FP signal (raw),Hsp90 in HEPG2 lysate; 2.5 uM,88
same,"FP signal, fraction of control",Hsp90 in HEPG2 lysate; 2.5 uM,0.4018
same,FP signal (raw),Hsp90 in HEPG2 lysate; 5 uM,53
same,"FP signal, fraction of control",Hsp90 in HEPG2 lysate; 5 uM,0.242
same,FP signal (raw),Hsp90 in HEPG2 lysate; 10 uM,32
same,"FP signal, fraction of control",Hsp90 in HEPG2 lysate; 10 uM,0.1461
same,EC50,Hsp90 in HEPG2 lysate; fit against log conc uM,1.8 µM
same,EC50,human Grp94 NBD; [2],261 nM
same,FP signal (raw),human Grp94 NBD; Cmpd 0.002 uM,93
same,FP signal as fraction of no-compound (0 uM) control,human Grp94 NBD; Cmpd 0.002 uM,0.9208
same,FP signal (raw),human Grp94 NBD; Cmpd 0.004 uM,89
same,FP signal as fraction of no-compound (0 uM) control,human Grp94 NBD; Cmpd 0.004 uM,0.8812
same,FP signal (raw),human Grp94 NBD; Cmpd 0.008 uM,88
same,FP signal as fraction of no-compound (0 uM) control,human Grp94 NBD; Cmpd 0.008 uM,0.8713
same,FP signal (raw),human Grp94 NBD; Cmpd 0.016 uM,85
same,FP signal as fraction of no-compound (0 uM) control,human Grp94 NBD; Cmpd 0.016 uM,0.8416
same,FP signal (raw),human Grp94 NBD; Cmpd 0.063 uM,73
same,FP signal as fraction of no-compound (0 uM) control,human Grp94 NBD; Cmpd 0.063 uM,0.7228
same,FP signal (raw),human Grp94 NBD; Cmpd 0.25 uM,51
same,FP signal as fraction of no-compound (0 uM) control,human Grp94 NBD; Cmpd 0.25 uM,0.505
same,FP signal (raw),human Grp94 NBD; Cmpd 0.5 uM,33
same,FP signal as fraction of no-compound (0 uM) control,human Grp94 NBD; Cmpd 0.5 uM,0.3267
same,FP signal (raw),human Grp94 NBD; Cmpd 1 uM,15
same,FP signal as fraction of no-compound (0 uM) control,human Grp94 NBD; Cmpd 1 uM,0.1485
same,FP signal (raw),human Grp94 NBD; Cmpd 2 uM,11
same,FP signal as fraction of no-compound (0 uM) control,human Grp94 NBD; Cmpd 2 uM,0.1089
same,EC50,human Hsp90 NBD; [2],1250 nM
same,FP signal (raw),human Hsp90 NBD; Cmpd 0.002 uM,100
same,FP signal as fraction of no-compound (0 uM) control,human Hsp90 NBD; Cmpd 0.002 uM,0.9615
same,FP signal (raw),human Hsp90 NBD; Cmpd 0.004 uM,101
same,FP signal as fraction of no-compound (0 uM) control,human Hsp90 NBD; Cmpd 0.004 uM,0.9712
same,FP signal (raw),human Hsp90 NBD; Cmpd 0.008 uM,101
same,FP signal as fraction of no-compound (0 uM) control,human Hsp90 NBD; Cmpd 0.008 uM,0.9712
same,FP signal (raw),human Hsp90 NBD; Cmpd 0.016 uM,99
same,FP signal as fraction of no-compound (0 uM) control,human Hsp90 NBD; Cmpd 0.016 uM,0.9519
same,FP signal (raw),human Hsp90 NBD; Cmpd 0.063 uM,96
same,FP signal as fraction of no-compound (0 uM) control,human Hsp90 NBD; Cmpd 0.063 uM,0.9231
same,FP signal (raw),human Hsp90 NBD; Cmpd 0.25 uM,85
same,FP signal as fraction of no-compound (0 uM) control,human Hsp90 NBD; Cmpd 0.25 uM,0.8173
same,FP signal (raw),human Hsp90 NBD; Cmpd 0.5 uM,85
same,FP signal as fraction of no-compound (0 uM) control,human Hsp90 NBD; Cmpd 0.5 uM,0.8173
same,FP signal (raw),human Hsp90 NBD; Cmpd 1 uM,59
same,FP signal as fraction of no-compound (0 uM) control,human Hsp90 NBD; Cmpd 1 uM,0.5673
same,FP signal (raw),human Hsp90 NBD; Cmpd 2 uM,28
same,FP signal as fraction of no-compound (0 uM) control,human Hsp90 NBD; Cmpd 2 uM,0.2692
same,FP signal (raw),[1]; 0.002 uM,169
same,"FP signal, fraction of control",[1]; 0.002 uM,0.8989
same,FP signal (raw),[1]; 0.004 uM,160
same,"FP signal, fraction of control",[1]; 0.004 uM,0.8511
same,FP signal (raw),[1]; 0.008 uM,155
same,"FP signal, fraction of control",[1]; 0.008 uM,0.8245
same,FP signal (raw),[1]; 0.01 uM,60
same,"FP signal, fraction of control",[1]; 0.01 uM,0.3226
same,FP signal (raw),[1]; 0.016 uM,142
same,"FP signal, fraction of control",[1]; 0.016 uM,0.7553
same,FP signal (raw),[1]; 0.02 uM,50
same,"FP signal, fraction of control",[1]; 0.02 uM,0.2688
same,FP signal (raw),[1]; 0.063 uM,103
same,"FP signal, fraction of control",[1]; 0.063 uM,0.5479
same,FP signal (raw),[1]; 0.078 uM,24
same,"FP signal, fraction of control",[1]; 0.078 uM,0.129
same,FP signal (raw),[1]; 0.25 uM,60
same,"FP signal, fraction of control",[1]; 0.25 uM,0.3191
same,FP signal (raw),[1]; 0.313 uM,14
same,"FP signal, fraction of control",[1]; 0.313 uM,0.07527
same,FP signal (raw),[1]; 0.5 uM,38
same,"FP signal, fraction of control",[1]; 0.5 uM,0.2021
same,FP signal (raw),[1]; 0.625 uM,7
same,"FP signal, fraction of control",[1]; 0.625 uM,0.03763
same,FP signal (raw),[1]; 1 uM,6
same,"FP signal, fraction of control",[1]; 1 uM,0.03191
same,FP signal (raw),[1]; 2 uM,0
same,"FP signal, fraction of control",[1]; 2 uM,0
same,FP signal (raw),[1]; 2.5 uM,3
same,"FP signal, fraction of control",[1]; 2.5 uM,0.01613
same,FP signal (raw),[1]; 5 uM,0
same,"FP signal, fraction of control",[1]; 5 uM,0
same,FP signal (raw),[1]; 10 uM,-4
same,"FP signal, fraction of control",[1]; 10 uM,-0.02151
same,EC50,"[1]; fit against log conc uM, read-out: EC50",0.102 µM
same,EC50,C. albicans Hsp90 NBD; [2],47.8 nM
same,FP signal (raw),C. albicans Hsp90 NBD; Cmpd 0.002 uM,81
same,FP signal as fraction of no-compound (0 uM) control,C. albicans Hsp90 NBD; Cmpd 0.002 uM,0.8526
same,FP signal (raw),C. albicans Hsp90 NBD; Cmpd 0.004 uM,80
same,FP signal as fraction of no-compound (0 uM) control,C. albicans Hsp90 NBD; Cmpd 0.004 uM,0.8421
same,FP signal (raw),C. albicans Hsp90 NBD; Cmpd 0.008 uM,78
same,FP signal as fraction of no-compound (0 uM) control,C. albicans Hsp90 NBD; Cmpd 0.008 uM,0.8211
same,FP signal (raw),C. albicans Hsp90 NBD; Cmpd 0.016 uM,72
same,FP signal as fraction of no-compound (0 uM) control,C. albicans Hsp90 NBD; Cmpd 0.016 uM,0.7579
same,FP signal (raw),C. albicans Hsp90 NBD; Cmpd 0.063 uM,36
same,FP signal as fraction of no-compound (0 uM) control,C. albicans Hsp90 NBD; Cmpd 0.063 uM,0.3789
same,FP signal (raw),C. albicans Hsp90 NBD; Cmpd 0.25 uM,16
same,FP signal as fraction of no-compound (0 uM) control,C. albicans Hsp90 NBD; Cmpd 0.25 uM,0.1684
same,FP signal (raw),C. albicans Hsp90 NBD; Cmpd 0.5 uM,10
same,FP signal as fraction of no-compound (0 uM) control,C. albicans Hsp90 NBD; Cmpd 0.5 uM,0.1053
same,FP signal (raw),C. albicans Hsp90 NBD; Cmpd 1 uM,7
same,FP signal as fraction of no-compound (0 uM) control,C. albicans Hsp90 NBD; Cmpd 1 uM,0.07368
same,FP signal (raw),C. albicans Hsp90 NBD; Cmpd 2 uM,8
same,FP signal as fraction of no-compound (0 uM) control,C. albicans Hsp90 NBD; Cmpd 2 uM,0.08421
